Experimental data taken from US10738057B2, “Tertiary alcohols as PI3K-γ inhibitors” (Incyte Corporation, priority 2017, dated 2020).
pIC50: −log10 of the molar value. Where a name gives a salt, the structure may show the parent alone. Read-outs that look alike come from different tables or passages of the source.

Tests used:
[1] = test system: Phosphorylated Ribosomal Protein S6 (RPS6) in THP-1 cells; experiment: THP-1 RPS6 ELISA assay; assay type: cell-based, Human; details: serum starved, 2 h compound, 10 nM MCP-1 for 15 min, phospho-RPS6 ELISA, read-out: PI3Kγ_THP1_RPS6_ELISA IC50
Summary of the method: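 Phospho-RPS6 in lysates measured by ELISA at 450 nm, corrected at 540 nm, after MCP-1 challenge (10 nM, 15 min) of THP-1 cells that were starved overnight and exposed to test compound for 2 h at 37° C, 2×10^5 cells/well. Curve fit of percent inhibition gives IC50.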

[2] = target: PI3Kγ (p110γ) Recombinant Human Protein (Homo sapiens (Human), UniProt P48736); experiment: PI3K-γ scintillation proximity assay; assay type: biochemical; details: 20 μM PIP2, 2 μM ATP, 13 nM PI3Kγ, 120 min, room temperature
Chain of PI3Kγ (p110γ) Recombinant Human Protein (P48736 whole entry): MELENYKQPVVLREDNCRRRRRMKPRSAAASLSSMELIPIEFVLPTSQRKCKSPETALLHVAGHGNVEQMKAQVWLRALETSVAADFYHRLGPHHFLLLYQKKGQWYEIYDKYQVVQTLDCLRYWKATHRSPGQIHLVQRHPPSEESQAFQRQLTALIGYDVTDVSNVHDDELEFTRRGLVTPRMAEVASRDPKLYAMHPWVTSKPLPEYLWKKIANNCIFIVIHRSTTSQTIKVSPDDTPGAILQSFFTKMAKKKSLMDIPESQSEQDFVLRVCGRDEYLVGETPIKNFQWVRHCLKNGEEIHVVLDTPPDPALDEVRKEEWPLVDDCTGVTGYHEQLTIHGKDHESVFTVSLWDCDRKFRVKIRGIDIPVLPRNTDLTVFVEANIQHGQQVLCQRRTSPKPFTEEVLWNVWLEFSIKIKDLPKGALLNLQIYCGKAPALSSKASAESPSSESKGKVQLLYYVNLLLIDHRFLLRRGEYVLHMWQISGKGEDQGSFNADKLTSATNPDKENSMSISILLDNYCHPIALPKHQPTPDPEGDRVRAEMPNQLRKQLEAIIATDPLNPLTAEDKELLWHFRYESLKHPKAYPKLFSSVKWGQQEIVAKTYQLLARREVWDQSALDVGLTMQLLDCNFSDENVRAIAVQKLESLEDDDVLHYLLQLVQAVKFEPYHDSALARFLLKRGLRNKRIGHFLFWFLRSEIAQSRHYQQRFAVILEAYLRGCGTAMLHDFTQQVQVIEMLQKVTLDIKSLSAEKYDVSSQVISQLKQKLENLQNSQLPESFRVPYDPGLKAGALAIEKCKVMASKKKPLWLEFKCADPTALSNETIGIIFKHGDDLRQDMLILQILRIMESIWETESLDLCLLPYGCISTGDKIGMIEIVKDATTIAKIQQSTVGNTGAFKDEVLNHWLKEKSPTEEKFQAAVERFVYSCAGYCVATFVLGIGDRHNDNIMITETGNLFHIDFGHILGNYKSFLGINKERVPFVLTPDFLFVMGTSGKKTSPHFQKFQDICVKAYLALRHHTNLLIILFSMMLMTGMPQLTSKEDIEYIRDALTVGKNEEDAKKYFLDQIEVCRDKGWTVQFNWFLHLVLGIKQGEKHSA
Summary of the method: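 Radiometric SPA in 20 mM MOPS pH 6.7, 10 mM MgCl2, 5 mM DTT, 0.03% CHAPS, 2% DMSO. Stopped with EDTA and WGA SPA beads for scintillation counting. IC50 fitted from % solvent-control activity versus log concentration.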

[3] = target: PI3Kδ (p110δ/p85α) Recombinant Human Protein (Homo sapiens (Human), UniProt O00329); experiment: PI3Kδ scintillation proximity assay; assay type: biochemical; details: 20 μM PIP2, 2 μM ATP, 3.4 nM PI3Kδ, 120 min, room temperature; read-out: PI3Kδ IC50
Chain of PI3Kδ (p110δ/p85α) Recombinant Human Protein (O00329 whole entry): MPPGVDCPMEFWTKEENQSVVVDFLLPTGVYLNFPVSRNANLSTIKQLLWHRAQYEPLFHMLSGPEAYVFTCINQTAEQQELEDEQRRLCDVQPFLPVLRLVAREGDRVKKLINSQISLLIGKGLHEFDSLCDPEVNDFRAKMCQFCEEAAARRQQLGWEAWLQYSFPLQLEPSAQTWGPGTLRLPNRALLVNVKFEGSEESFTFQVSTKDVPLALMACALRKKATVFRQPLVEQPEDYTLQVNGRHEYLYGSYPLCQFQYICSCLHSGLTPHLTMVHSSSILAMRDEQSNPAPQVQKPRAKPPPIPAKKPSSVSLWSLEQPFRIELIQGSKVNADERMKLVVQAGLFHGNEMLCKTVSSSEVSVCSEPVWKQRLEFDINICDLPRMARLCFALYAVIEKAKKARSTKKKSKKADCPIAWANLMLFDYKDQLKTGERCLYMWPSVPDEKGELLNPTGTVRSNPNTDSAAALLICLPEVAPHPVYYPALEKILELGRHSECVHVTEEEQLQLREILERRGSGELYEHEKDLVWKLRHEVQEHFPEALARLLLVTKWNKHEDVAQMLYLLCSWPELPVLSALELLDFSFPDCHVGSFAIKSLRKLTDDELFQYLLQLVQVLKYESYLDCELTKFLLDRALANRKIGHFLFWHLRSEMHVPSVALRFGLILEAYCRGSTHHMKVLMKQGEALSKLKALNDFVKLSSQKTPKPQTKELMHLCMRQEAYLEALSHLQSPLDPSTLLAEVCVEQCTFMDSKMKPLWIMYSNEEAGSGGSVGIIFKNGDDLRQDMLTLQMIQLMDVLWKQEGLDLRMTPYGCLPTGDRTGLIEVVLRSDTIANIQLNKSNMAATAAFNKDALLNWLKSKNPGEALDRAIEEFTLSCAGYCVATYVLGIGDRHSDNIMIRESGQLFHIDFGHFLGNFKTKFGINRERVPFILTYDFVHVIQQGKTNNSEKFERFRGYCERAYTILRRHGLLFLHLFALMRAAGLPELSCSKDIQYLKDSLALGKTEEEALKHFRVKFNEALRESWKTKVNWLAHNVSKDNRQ
Chain of PI3Kδ (p110δ/p85α) Recombinant Human Protein (P27986 whole entry partner): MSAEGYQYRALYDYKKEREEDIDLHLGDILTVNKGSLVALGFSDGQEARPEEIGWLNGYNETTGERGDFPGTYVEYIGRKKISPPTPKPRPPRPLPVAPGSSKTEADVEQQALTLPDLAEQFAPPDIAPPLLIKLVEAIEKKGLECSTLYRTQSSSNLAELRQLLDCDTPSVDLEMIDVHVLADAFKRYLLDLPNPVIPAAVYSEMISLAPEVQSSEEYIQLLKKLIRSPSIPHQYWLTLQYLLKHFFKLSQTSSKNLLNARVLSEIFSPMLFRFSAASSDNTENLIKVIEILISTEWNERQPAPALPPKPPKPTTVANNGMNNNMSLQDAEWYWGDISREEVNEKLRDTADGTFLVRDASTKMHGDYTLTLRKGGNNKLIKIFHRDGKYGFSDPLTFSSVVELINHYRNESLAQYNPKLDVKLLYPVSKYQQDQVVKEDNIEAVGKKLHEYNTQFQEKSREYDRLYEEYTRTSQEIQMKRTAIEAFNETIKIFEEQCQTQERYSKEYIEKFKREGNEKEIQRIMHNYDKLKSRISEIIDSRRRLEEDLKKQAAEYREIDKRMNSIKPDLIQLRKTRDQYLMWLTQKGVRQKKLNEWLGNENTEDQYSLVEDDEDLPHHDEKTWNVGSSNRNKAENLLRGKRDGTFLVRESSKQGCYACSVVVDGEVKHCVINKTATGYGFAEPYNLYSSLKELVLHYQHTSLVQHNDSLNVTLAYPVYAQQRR
Summary of the method: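 Recombinant human p110δ/p85α was run at room temperature in 20 mM MOPS pH 6.7, 10 mM MgCl2, 5 mM DTT, 0.03% CHAPS, 2% DMSO. Substrates were 20 µM PIP2 and 2 µM ATP with [γ-33P]ATP. Product was captured overnight on WGA SPA beads and counted by scintillation; IC50 fitted from percent of solvent control versus log concentration.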

[4] = Homo sapiens, THP-1, THP-1 cells

Row | Compound | pIC50 [1, 4] | pIC50 [2] | pIC50 [3] | pIC50 ([1]; THP-1 cells) | pIC50 ([1]; Homo sapiens, THP-1 cells)
1 | [2H]C([2H])([2H])c1ccc(C(C)(O)C(F)(F)F)cc1-c1cnc2c(N)nc(-c3cnn(C4(CC#N)CC(C(=O)OC)C4)c3)cn12 (stereo not drawn) [Example 88, Methyl 3-(4-(8-amino-3-(2-(methyl-d3)-5-(1,1,1-trifluoro-2-hydroxypropan-2-yl)phenyl)imidazo[1,2-a]pyrazin-6-yl)-1H-pyrazol-1-yl)-3-(cyanomethyl)cyclobutane-1-carboxylate, trifluoroacetate] | 6.30 to 7.00 | > 7.00 | 6.30 to 7.00 |  | 
2 | Cc1ccc(C(C)(O)C(F)F)cc1-c1cnc2c(N)nc(C(F)(F)F)cn12 (single isomer, unassigned) [Example 27, 2-(3-(8-Amino-6-(trifluoromethyl)imidazo[1,2-a]pyrazin-3-yl)-4-methylphenyl)-1,1-difluoropropan-2-ol] |  | > 7.00 | 6.30 to 7.00 | 6.30 to 7.00 | 
3 | Cc1ccc(C(C)(O)C(F)(F)F)cc1-c1cnc2c(N)nc(C(=O)NCC3(C#N)CCC3)cn12 (stereo not drawn) [Example 283, 8-Amino-N-((1-cyanocyclobutyl)methyl)-3-(2-methyl-5-(1,1,1-trifluoro-2-hydroxypropan-2-yl)phenyl)imidazo[1,2-a]pyrazine-6-carboxamide trifluoroacetate salt] | < 6.00 | > 7.00 | > 7.00 |  | 
4 | Cc1ccc(C(O)(C(N)=O)C(F)(F)F)cc1-c1cnc2c(N)nc(C(=O)NCC(C)(C)O)cn12 (stereo not drawn) [Example 284, 8-Amino-3-(5-(3-amino-1,1,1-trifluoro-2-hydroxy-3-oxopropan-2-yl)-2-methylphenyl)-N-(2-hydroxy-2-methylpropyl)imidazo[1,2-a]pyrazine-6-carboxamide] | > 7.00 | > 7.00 | 6.30 to 7.00 |  | 
5 | Cc1ccc(C(C)(O)C(F)(F)Cl)cc1-c1cnc2c(N)nc(C(F)(F)F)cn12 (stereo not drawn) [Example 268, 2-(3-(8-Amino-6-(trifluoromethyl)imidazo[1,2-a]pyrazin-3-yl)-4-methylphenyl)-1-chloro-1,1-difluoropropan-2-ol] | 6.30 to 7.00 | > 7.00 | 6.30 to 7.00 |  | 
6 | Cc1ccc(C(C)(O)C(F)F)cc1-c1cnc2c(N)nc(-c3c(C)cnn3C)cn12 (stereo not drawn) [Example 42, 2-(3-(8-Amino-6-(1,4-dimethyl-1H-pyrazol-5-yl)imidazo[1,2-a]pyrazin-3-yl)-4-methylphenyl)-1,1-difluoropropan-2-ol] | 6.30 to 7.00 | > 7.00 | 6.30 to 7.00 |  | 
7 | Cc1ccc(C(O)C(F)(F)F)cc1-c1cnc2c(N)nc(C(F)(F)F)cn12 (stereo not drawn) [Example 23, 1-(3-(8-Amino-6-(trifluoromethyl)imidazo[1,2-a]pyrazin-3-yl)-4-methylphenyl)-2,2,2-trifluoroethan-1-ol trifluoroacetate salt] | 6.00 to 6.30 | > 7.00 | 5.70 to 6.30 |  | 
8 | CNC(=O)C(O)(c1ccc(C)c(-c2cnc3c(N)nc(C(F)(F)F)cn23)c1)C(F)(F)F (stereo not drawn) [Example 118, 2-(3-(8-Amino-6-(trifluoromethyl)imidazo[1,2-a]pyrazin-3-yl)-4-methylphenyl)-3,3,3-trifluoro-2-hydroxy-N-methylpropanamide] | > 7.00 | > 7.00 | > 7.00 |  | 
9 | COC(=O)c1cn2c(-c3cc(C(C)(O)C(F)(F)F)ccc3C)cnc2c(N)n1 (stereo not drawn) [Example 8, Methyl 8-amino-3-(2-methyl-5-(1,1,1-trifluoro-2-hydroxypropan-2-yl)phenyl)imidazo[1,2-a]pyrazine-6-carboxylate] | 6.00 to 6.30 | > 7.00 | 5.70 to 6.30 |  | 
10 | Cc1ccc(C(O)(C(N)=O)C(F)F)cc1-c1cnc2c(N)nc(C(F)(F)F)cn12 (stereo not drawn) [Example 89, 2-(3-(8-Amino-6-(trifluoromethyl)imidazo[1,2-a]pyrazin-3-yl)-4-methylphenyl)-3,3-difluoro-2-hydroxypropanamide] | > 7.00 | > 7.00 | > 7.00 |  | 
11 | [2H]C([2H])([2H])n1nccc1-c1cn2c(-c3cc(C(C)(O)C(F)F)ccc3C)cnc2c(N)n1 (single isomer, unassigned) [Example 25, 2-(3-(8-Amino-6-(1-(methyl-d3)-1H-pyrazol-5-yl)imidazo[1,2-a]pyrazin-3-yl)-4-methylphenyl)-1,1-difluoropropan-2-ol trifluoroacetate salt] | 6.30 to 7.00 | > 7.00 | 6.30 to 7.00 |  | 
12 | Cc1ccc(C(O)(CNC(=O)CF)C(F)(F)F)cc1-c1cnc2c(N)nc(C(F)(F)F)cn12 (stereo not drawn) [Example 214, N-(2-(3-(8-amino-6-(trifluoromethyl)imidazo[1,2-a]pyrazin-3-yl)-4-methylphenyl)-3,3,3-trifluoro-2-hydroxypropyl)-2-fluoroacetamide trifluoroacetate salt] |  | > 7.00 | 6.30 to 7.00 |  | 6.30 to 7.00
13 | COc1cnc(-c2cn3c(-c4cc(C(C)(O)C(F)(F)F)ccc4C)cnc3c(N)n2)s1 (stereo not drawn) [Example 21, 2-(3-(8-Amino-6-(5-methoxythiazol-2-yl)imidazo[1,2-a]pyrazin-3-yl)-4-methylphenyl)-1,1,1-trifluoropropan-2-ol, TFA] | 6.30 to 7.00 | > 7.00 | > 7.00 |  | 
14 | Cc1ccc(C(C)(O)C(F)(F)F)cc1-c1cnc2c(N)nc(C3CC(CO)C3)cn12 (single isomer, unassigned) [Example 207, 2-(3-(8-amino-6-(3-(hydroxymethyl)cyclobutyl)imidazo[1,2-a]pyrazin-3-yl)-4-methylphenyl)-1,1,1-trifluoropropan-2-ol trifluoroacetate] | > 7.00 | > 7.00 | > 7.00 |  | 
15 | Cc1ccc(C(C)(O)C(F)F)cc1-c1cnc2c(N)nc(-c3ccnc(CO)c3)cn12 (single isomer, unassigned) [Example 45, 2-(3-(8-Amino-6-(2-(hydroxymethyl)pyridin-4-yl)imidazo[1,2-a]pyrazin-3-yl)-4-methylphenyl)-1,1-difluoropropan-2-ol] |  | > 7.00 | > 7.00 | 6.30 to 7.00 | 
16 | Cc1ccc(C(C)(O)C(F)F)cc1-c1cnc2c(N)nc(-c3ccc(CO)nc3)cn12 (stereo not drawn) [Example 46, 2-(3-(8-Amino-6-(6-(hydroxymethyl)pyridin-3-yl)imidazo[1,2-a]pyrazin-3-yl)-4-methylphenyl)-1,1-difluoropropan-2-ol trifluoroacetate] | > 7.00 | > 7.00 | 6.30 to 7.00 |  | 
17 | [2H]C([2H])([2H])c1ccc(C(C)(O)C(F)(F)F)cc1-c1cnc2c(N)nc(-c3cnn4c3CCC4)cn12 (stereo not drawn) [Example 87, 2-(3-(8-Amino-6-(5,6-dihydro-4H-pyrrolo[1,2-b]pyrazol-3-yl)imidazo[1,2-a]pyrazin-3-yl)-4-(methyl-d3)phenyl)-1,1,1-trifluoropropan-2-ol, trifluoroacetate] | 6.30 to 7.00 | > 7.00 | > 7.00 |  | 
18 | Cc1ccc(C(O)(CCO)C(F)(F)F)cc1-c1cnc2c(N)nc(C(F)(F)F)cn12 (stereo not drawn) [Example 18, 3-(3-(8-Amino-6-(trifluoromethyl)imidazo[1,2-a]pyrazin-3-yl)-4-methylphenyl)-4,4,4-trifluorobutane-1,3-diol] | 6.30 to 7.00 | > 7.00 | 6.30 to 7.00 |  | 
19 | Cc1cc(CNC(=O)c2cn3c(-c4cc(C(C)(O)C(F)(F)F)ccc4C)cnc3c(N)n2)on1 (stereo not drawn) [Example 22, 8-Amino-3-(2-methyl-5-(1,1,1-trifluoro-2-hydroxypropan-2-yl)phenyl)-N-((3-methylisoxazol-5-yl)methyl)imidazo[1,2-a]pyrazine-6-carboxamide, TFA] | 6.30 to 7.00 | > 7.00 | > 7.00 |  | 
20 | Cc1ccc(C(C)(O)C(F)(F)F)cc1-c1cnc2c(N)nc(C(F)(F)F)cn12 (stereo not drawn) [Example 4, 2-(3-(8-Amino-6-(trifluoromethyl)imidazo[1,2-a]pyrazin-3-yl)-4-methylphenyl)-1,1,1-trifluoropropan-2-ol] | 6.30 to 7.00 | > 7.00 | 6.30 to 7.00 |  | 
21 | Cc1ccc(C(C)(O)C(F)F)cc1-c1cnc2c(N)nc(-c3ccc(C(C)O)nc3)cn12 (single isomer, unassigned) [Example 136, 2-(3-(8-Amino-6-(6-(1-hydroxyethyl)pyridin-3-yl)imidazo[1,2-a]pyrazin-3-yl)-4-methylphenyl)-1,1-difluoropropan-2-ol] | > 7.00 | > 7.00 | 6.30 to 7.00 |  | 
22 | Cc1ccc(C(C)(O)C(F)F)cc1-c1cnc2c(N)nc(-c3ccnc(C)c3F)cn12 (stereo not drawn) [Example 35, 2-(3-(8-Amino-6-(3-fluoro-2-methylpyridin-4-yl)imidazo[1,2-a]pyrazin-3-yl)-4-methylphenyl)-1,1-difluoropropan-2-ol] | > 7.00 | > 7.00 | > 7.00 |  | 
